Literature values in US8680270B2, “Metallo-oxidoreductase inhibitors using metal binding moieties in combination with targeting moieties” (Viamet Pharmaceuticals, Inc., priority 2006, dated 2014).
Where two headings read alike, the source gives them in different places.

How the values were obtained:
[1] = test system: androgen-independent, anaplastic AT-6 tumors; conditions: 120 mg/100 gm food, equivalent to 100 mg/kg per day
[2] = test system: androgen-dependent Dunning-H tumor; conditions: 120 mg/100 gm food, equivalent to 100 mg/kg per day
Plasmodium falciparum [3] = test system: Plasmodium falciparum
Plasmodium falciparum [4] = test system: Plasmodium falciparum; remark: listed apart in the source
sGC = target: T1, sGC (Homo sapiens, UniProt Q02153); set-up: dose or concentration left out as unconfirmed; conditions: broken cell preparations
T1 sequence (Q02153 1-619): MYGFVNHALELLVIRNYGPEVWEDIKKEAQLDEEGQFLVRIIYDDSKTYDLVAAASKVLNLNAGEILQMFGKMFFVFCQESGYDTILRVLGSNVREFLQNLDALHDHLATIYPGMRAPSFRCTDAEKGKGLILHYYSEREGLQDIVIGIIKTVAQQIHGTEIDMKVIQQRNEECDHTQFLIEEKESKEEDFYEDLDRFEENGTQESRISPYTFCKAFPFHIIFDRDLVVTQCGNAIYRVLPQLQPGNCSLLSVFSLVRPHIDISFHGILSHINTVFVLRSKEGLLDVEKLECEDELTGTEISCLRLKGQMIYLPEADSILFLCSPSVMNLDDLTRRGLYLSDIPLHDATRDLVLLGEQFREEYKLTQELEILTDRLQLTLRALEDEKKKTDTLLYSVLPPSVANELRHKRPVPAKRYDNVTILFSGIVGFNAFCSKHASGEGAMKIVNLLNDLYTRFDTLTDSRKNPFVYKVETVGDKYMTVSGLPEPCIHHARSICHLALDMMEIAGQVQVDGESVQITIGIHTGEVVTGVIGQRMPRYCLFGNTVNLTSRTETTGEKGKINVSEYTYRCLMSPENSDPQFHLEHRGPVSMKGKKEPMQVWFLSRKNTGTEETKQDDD
T1 sequence (Q02108 1-690 partner): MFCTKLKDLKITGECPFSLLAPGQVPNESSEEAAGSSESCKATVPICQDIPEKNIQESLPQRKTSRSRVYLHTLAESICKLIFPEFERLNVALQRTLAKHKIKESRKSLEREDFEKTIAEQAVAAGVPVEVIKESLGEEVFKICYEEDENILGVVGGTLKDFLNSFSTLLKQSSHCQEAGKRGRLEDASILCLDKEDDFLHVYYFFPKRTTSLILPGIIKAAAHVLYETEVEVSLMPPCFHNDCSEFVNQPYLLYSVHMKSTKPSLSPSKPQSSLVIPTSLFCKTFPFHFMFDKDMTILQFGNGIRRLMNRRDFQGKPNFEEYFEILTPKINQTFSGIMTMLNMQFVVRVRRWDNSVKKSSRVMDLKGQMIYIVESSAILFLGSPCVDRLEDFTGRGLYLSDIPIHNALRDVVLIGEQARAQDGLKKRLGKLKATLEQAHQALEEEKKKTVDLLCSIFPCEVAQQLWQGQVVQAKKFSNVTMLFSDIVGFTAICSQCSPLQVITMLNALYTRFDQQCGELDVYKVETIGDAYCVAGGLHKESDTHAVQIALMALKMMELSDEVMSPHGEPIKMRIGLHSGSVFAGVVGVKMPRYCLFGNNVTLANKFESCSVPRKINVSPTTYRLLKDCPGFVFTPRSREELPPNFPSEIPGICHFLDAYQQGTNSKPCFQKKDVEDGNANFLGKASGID

NOS = test system: NOS; set-up: dose or concentration left out as unconfirmed; conditions: broken cell preparations
HO (heme oxygenase) = test system: HO (heme oxygenase); set-up: dose or concentration left out as unconfirmed; conditions: broken cell preparations

## Clc1cccc(C(c2ccc3[nH]cnc3c2)n2ccnc2)c1 (stereo not shown) [Liarozole]
[1]
  Reduction of tumor growth: −73%
[2]
  Median tumor volume decrease: 60%

## O=CN(O)CCCP(=O)(O)O [fosmidomycin]
Plasmodium falciparum [3]; Gabon, seven out of nine subjects
  Subjects cured on day 28: 78%
Plasmodium falciparum [3]; Thailand, two out of nine subjects
  Subjects cured on day 28: 22%
Plasmodium falciparum [3]; oral 1,200 mg every 8 h for 7 days
  Clinical and parasitological cure on day 7 (primary end point): All subjects were clinically and parasitologically cured
Plasmodium falciparum [3]; oral 1,200 mg every 8 h for 7 days, mild gastrointestinal side effects in five subjects
  Tolerability: well tolerated
Plasmodium falciparum [4]; 1.2 g every 8 h for 3 days, six of ten
  Cure rate by day 14: 60%
Plasmodium falciparum [4]; 1.2 g every 8 h for 4 days, seven of eight
  Cure rate by day 14: 88%
Plasmodium falciparum [4]; 1.2 g every 8 h for 5 days, eight of nine
  Cure rate by day 14: 89%
Plasmodium falciparum [4]; all treatment regimens, 1.2 g every 8 h for 5, 4 or 3 days
  Tolerability: well tolerated

## chromium mesoporphyrin IX [CrMP]
sGC
  Effect on sGC: little or no effect
NOS
  Effect on NOS: little or no effect
HO (heme oxygenase)
  Inhibition of HO: 90%
